# Read-outs that look alike come from different tables or passages of the source.
# How the values were obtained:
# [1] = system: fecal water content; experiment: Pharmacodynamic model: effect of test compounds on fecal water content; format: in vivo, rat; details: female Sprague Dawley rats, 3 mg/kg oral, feces collected 16 hrs
# Protocol: Normal female Sprague Dawlev rats (Charles-River laboratories international, Hollister, Calif.), 7-8 weeks old with body weight 175-200 g were acclimated for at least 3 days before proceeding to experiments. The animals were provided food (Harlan Teklad 2018c) and water ad lib, through the experiment. Animals were randomly grouped with 6 rats per group.
# The experiments were initiated by orally dosing test compounds at 3 mg/kg in volume of 10 ml/kg. Rats from control group were gavaged with the same volume of vehicle (water). After dosing, rats were placed in metabolic cages for 16 hrs (overnight). Food and water consumption were monitored. After sixteen hours, feces and urine were collected. The percent of fecal water was measured by weighing fecal samples before and after drying.
# Representative data of % fecal water content are shown in Table 12 (data are expressed as means, with 6 animals per data point). The differences between control and treated groups were evaluated by one way ANOVA with Dunnett post tests. Results are significant if p<0.05.
# [2] = system: fecal water content, urinary sodium, fecal form; experiment: Pharmacodynamic model: addition of a fluid absorbing polymer (1% Psyllium) to chow; format: in vivo, rat; details: rats, chow with 1% Psyllium (FIGS. 5A-5C)
# From the text: Rats were monitored for fecal water content as in Example 13, with the addition of a second group that were fed chow with the addition of 1% Psyllium to their diet. In addition to fecal water and urinary sodium, fecal form was monitored on a scale of 1-5, where 1 is a normal pellet, 3 indicates soft and unformed pellets, and 5 indicates watery feces.
# [3] = system: acute stress-induced visceral hypersensitivity; experiment: Effect on acute stress-induced visceral hypersensitivity (colorectal distension); format: in vivo, rat; details: female Wistar rats, partial restraint stress, 10 mg/kg oral, at 45 and 60 mm Hg, p<0.05 (FIG. 6)
# Protocol: Female Wistar rats weighing 220-250 g were prepared for electromyography. The animals were anaesthetized, and three pairs of nichrome wire electrodes were implanted bilaterally in the striated muscles at 3 cm laterally from the midline. The free ends of electrodes were exteriorised on the back of the neck and protected by a glass tube attached to the skin. Electromyographic recordings (EMG) were begun 5 days after surgery. The electrical activity of the abdominal striated muscles were recorded with an electromyograph machine (Mini VIII; Alvar, Paris, France) using a short time constant (0.03 sec.) to remove low-frequency signals (<3 Hz).
# Partial restraint stress (PRS), a relatively mild stress, was performed as follows. Briefly, animals were lightly anaesthetized with ethyl-ether, and their […], upper forelimbs and thoracic trunk were wrapped in a confining harness of paper tape to restrict, but not prevent their body movements and placed in their home cage for 2 hours. Control sham-stress animals were anaesthetized but not wrapped. […]
# Colorectal distension (CRD) was accomplished as follows: rats were placed in a plastic tunnel, where they were not allowed to move or escape daily during 3 consecutive days (3 h/day) before any CRD. […] For each parameter studied (the number of abdominal contractions for each 5-min period during rectal distension) data is expressed as mean±SEM. […]
# [4] = biological target: NHE-1 (Rattus norvegicus, UniProt P26431); details: * = from rat; read-out: IC50 or Ki, NHE-1; cited from earlier work
# Chain of NHE-1 (Rattus norvegicus, UniProt P26431) (P26431 whole entry): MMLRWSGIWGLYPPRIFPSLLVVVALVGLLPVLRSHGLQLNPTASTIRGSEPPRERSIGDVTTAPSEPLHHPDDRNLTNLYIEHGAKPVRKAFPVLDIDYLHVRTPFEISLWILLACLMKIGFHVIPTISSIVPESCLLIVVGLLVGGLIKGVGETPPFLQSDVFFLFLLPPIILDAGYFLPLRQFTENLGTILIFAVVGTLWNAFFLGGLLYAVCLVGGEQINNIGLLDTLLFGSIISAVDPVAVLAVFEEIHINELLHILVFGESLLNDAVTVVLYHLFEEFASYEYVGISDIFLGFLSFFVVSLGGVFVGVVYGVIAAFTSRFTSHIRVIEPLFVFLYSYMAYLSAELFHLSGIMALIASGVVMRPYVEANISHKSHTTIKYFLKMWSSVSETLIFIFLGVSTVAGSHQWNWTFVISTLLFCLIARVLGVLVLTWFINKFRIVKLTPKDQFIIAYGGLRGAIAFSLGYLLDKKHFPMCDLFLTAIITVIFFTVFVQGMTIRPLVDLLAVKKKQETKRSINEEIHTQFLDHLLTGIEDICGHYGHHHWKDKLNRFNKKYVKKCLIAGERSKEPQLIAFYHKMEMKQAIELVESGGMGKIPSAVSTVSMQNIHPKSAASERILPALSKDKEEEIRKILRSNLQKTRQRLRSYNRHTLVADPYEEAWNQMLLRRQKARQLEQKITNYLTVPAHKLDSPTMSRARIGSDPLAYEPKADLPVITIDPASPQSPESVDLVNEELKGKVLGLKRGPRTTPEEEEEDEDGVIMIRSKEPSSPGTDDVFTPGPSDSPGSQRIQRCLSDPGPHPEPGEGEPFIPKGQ
# [5] = biological target: NHE-3 (Rattus norvegicus, UniProt P26433); details: cited from earlier work
# Chain of NHE-3 (P26433 29-831): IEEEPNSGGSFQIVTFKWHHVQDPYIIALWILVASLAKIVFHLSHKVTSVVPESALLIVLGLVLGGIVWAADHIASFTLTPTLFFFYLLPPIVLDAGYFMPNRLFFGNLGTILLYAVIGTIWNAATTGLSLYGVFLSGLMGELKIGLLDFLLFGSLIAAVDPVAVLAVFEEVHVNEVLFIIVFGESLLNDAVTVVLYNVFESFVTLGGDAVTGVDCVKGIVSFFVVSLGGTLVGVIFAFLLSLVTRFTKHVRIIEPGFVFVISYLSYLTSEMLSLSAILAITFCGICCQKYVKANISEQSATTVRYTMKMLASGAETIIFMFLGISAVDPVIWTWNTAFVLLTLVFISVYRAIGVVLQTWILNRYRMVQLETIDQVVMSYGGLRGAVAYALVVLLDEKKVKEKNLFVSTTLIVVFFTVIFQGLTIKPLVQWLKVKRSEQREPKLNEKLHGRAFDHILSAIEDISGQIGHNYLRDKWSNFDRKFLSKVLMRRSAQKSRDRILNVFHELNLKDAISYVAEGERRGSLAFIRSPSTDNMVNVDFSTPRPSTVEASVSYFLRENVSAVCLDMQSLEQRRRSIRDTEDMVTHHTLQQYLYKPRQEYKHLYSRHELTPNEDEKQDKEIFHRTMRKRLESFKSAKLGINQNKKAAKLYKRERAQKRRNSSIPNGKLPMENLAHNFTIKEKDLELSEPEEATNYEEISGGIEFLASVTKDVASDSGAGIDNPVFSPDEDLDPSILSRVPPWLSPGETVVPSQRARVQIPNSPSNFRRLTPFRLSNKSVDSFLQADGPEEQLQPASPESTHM
# [6] = biological target: T1, NHE-2 (Rattus norvegicus, UniProt P48763); details: * = from rat; read-out: IC50 or Ki, NHE-2; cited from earlier work
# T1 sequence (P48763 1-813): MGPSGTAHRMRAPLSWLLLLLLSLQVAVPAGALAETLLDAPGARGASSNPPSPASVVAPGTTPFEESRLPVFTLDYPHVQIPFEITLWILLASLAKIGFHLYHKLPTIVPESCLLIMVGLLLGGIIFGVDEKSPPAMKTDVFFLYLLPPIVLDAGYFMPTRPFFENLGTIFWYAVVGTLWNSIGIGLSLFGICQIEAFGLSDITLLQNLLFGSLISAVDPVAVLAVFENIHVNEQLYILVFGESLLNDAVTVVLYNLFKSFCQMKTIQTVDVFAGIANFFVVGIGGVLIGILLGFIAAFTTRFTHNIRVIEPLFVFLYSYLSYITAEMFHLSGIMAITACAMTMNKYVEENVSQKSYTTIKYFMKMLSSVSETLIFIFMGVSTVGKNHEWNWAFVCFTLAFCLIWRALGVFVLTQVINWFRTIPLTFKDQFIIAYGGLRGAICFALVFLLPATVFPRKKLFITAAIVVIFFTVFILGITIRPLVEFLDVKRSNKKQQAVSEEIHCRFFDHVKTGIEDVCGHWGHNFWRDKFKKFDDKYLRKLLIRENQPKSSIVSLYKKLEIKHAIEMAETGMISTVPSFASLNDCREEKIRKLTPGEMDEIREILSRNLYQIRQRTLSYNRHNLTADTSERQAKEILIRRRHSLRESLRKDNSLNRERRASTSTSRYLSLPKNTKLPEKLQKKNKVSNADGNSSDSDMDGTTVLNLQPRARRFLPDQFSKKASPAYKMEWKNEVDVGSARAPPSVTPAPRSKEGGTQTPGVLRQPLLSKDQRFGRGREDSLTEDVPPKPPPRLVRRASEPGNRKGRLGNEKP
# [7] = biological target: NHE-1 (Homo sapiens, UniProt P19634); experiment: Inhibition of NHE-1, literature data (Table 1), species not marked; format: cell-based; details: selectivity NHE-1 over NHE-3, from Table 1
# Chain of NHE-1 (Homo sapiens, UniProt P19634) (P19634 whole entry, species assumed, canonical isoform): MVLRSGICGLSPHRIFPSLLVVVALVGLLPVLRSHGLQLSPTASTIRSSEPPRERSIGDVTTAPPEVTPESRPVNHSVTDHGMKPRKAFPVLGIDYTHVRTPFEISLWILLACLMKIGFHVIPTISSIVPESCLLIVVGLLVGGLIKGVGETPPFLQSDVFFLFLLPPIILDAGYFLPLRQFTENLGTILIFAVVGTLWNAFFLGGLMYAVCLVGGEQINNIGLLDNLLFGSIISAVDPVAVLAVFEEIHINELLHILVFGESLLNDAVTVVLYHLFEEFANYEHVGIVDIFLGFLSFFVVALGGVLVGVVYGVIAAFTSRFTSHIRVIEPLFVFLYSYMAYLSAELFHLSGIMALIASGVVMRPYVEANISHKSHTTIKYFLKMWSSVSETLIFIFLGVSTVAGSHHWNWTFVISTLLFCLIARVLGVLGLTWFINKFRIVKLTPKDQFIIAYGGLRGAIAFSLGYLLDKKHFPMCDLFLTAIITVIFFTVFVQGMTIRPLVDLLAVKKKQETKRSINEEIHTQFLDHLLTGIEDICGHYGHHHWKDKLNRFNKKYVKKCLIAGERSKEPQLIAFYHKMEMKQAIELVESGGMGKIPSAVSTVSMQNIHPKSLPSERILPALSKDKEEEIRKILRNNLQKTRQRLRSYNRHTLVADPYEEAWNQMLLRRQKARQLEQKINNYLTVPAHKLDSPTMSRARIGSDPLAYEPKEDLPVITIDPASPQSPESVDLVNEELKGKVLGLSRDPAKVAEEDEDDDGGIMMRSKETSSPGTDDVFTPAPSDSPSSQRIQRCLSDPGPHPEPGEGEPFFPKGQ
# From the text: Shown below are examples of various NHE inhibiting small molecules and their selectivity across the NHE-1, -2 and -3 isoforms. (See, e.g., B. Masereel et al., An Overview of Inhibitors of Na+/H+ Exchanger, European J. of Med. Chem., 38, pp. 547-554 (2003), the entire contents of which is incorporated by reference here for all relevant and consistent purposes). […] It is thus possible to engineer NHE-3 selectivity into a chemical series optim/zed for potency against another antiporter isoform; that is, the inhibitor classes exemplified in the art may be suitably modified for activity and selectivity against NHE-3 (or alternatively NHE-2 and/or NHE-8), as well as being modified to be rendered substantially impermeable or substantially systemically non-bioavailable.
# [8] = biological target: T2, NHE-5 (Homo sapiens, UniProt Q14940); details: read-out: IC50 or Ki, NHE-5; cited from earlier work
# T2 sequence (Q14940 1-896): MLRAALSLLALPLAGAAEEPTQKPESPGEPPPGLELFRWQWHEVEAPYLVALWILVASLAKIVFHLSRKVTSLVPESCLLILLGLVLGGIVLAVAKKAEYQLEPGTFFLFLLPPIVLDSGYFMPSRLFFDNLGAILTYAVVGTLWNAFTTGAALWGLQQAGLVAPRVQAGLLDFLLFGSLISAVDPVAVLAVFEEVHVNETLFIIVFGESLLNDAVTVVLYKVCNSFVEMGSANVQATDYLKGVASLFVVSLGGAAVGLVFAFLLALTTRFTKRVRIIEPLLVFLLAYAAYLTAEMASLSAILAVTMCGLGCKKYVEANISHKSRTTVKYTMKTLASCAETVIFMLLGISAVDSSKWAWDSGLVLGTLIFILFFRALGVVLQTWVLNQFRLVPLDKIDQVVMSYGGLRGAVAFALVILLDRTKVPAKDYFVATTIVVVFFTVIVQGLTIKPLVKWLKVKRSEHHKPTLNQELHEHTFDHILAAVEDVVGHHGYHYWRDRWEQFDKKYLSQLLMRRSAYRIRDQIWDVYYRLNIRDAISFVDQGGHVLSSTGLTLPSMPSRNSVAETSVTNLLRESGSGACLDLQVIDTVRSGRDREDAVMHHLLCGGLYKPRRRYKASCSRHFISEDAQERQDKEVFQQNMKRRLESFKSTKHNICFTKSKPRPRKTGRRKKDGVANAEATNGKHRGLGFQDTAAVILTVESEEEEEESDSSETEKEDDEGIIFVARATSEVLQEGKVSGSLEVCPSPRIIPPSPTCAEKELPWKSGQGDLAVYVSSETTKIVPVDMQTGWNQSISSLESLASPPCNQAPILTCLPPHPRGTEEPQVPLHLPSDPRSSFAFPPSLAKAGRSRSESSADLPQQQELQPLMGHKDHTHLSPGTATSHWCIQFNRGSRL
# [9] = * = from rat, read-out: IC50 or Ki, NHE-3
smiles,measurement,setting,value
"CN1Cc2c(Cl)cc(Cl)cc2C(c2cccc(S(=O)(=O)NCCOCCOCCOCCNC(=O)C(O)C(O)C(=O)NCCOCCOCCOCCNS(=O)(=O)c3cccc(C4CN(C)Cc5c(Cl)cc(Cl)cc54)c3)c2)C1 (single isomer, unassigned) [Example 224, N1,N4-bis(2-(2-(2-(2-(3-((S or R)-6,8-dichloro-2-methyl-1,2,3,4-tetrahydroisoquinolin-4-yl)phenylsulfonamido)ethoxy)ethoxy)ethoxy)ethyl)-2,3-dihydroxysuccinamide]",% Fecal water (% of control),[1],125% of control
same,% Fecal water,[1]; mean of 6,65%
same,ability to increase fecal water content or decrease urinary sodium with Psyllium in the diet,[2],without impacting the ability
same,visceral hypersensitivity to distension (abdominal contractions),[3],reduces visceral hypersensitivity to distension
"N=C(N)NC(=O)c1nc(Cl)c(N)nc1N [Amiloride, amiloride]",IC50,[4],1000 to 1600 nM
same,IC50,[5]; [9],> 100000 nM
same,IC50,"[5]; as restated in the text on Table 1, read-out: NHE-3 IC50",> 100000 nM
"CCN(c1nc(N)c(C(=O)NC(=N)N)nc1Cl)C(C)C [EIPA, ethyl isopropyl amiloride]",IC50,[6],80 nM
"C/C(=C\c1cccc(/C=C(\C)C(=O)NC(=N)N)c1)C(=O)N=C(N)N [Example S-2120, S-2120]",fold more active against NHE-1 than NHE-3,[7],over 500 fold
"C/C(=C\c1cc(C)ccc1/C=C(\C)C(=O)NC(=N)N)C(=O)N=C(N)N [Example S-3226, S-3226]",fold more active against NHE-1 than NHE-3,[7],reversed
N=C(N)NC(=O)c1nc(Cl)c(N2CCCCCC2)nc1N [HMA],IC50,[4],13 nM
same,IC50,[5]; [9],2400 nM
same,IC50,[8],370 nM
